Laboratory results reported in publication PMC9228152, “New Amino Naphthoquinone Derivatives as Anti-Trypanosoma cruzi Agents Targeting Trypanothione Reductase” (Pharmaceutics, 2022).
Where two headings read alike, the source gives them in different places.

Tests used:
[1] = tested on: T. cruzi epimastigotes, NINOA strain; test: Growth inhibition of T. cruzi epimastigotes, NINOA strain; assay type: cell-based; conditions: Trypanosoma cruzi, 120 h, read-out: Epi NINOA IC50
Description: (§1) Epimastigotes from T. cruzi strains NINOA and INC-5 were cultured in BHI (brain heart infusion broth, 89%) axenic medium, as reported in [26], at an initial concentration of 1 × 10^6 parasites/mL, at 28 °C, supplemented with 10% foetal bovine serum and 1% sodium penicillin-streptomycin. […] On the last day, the absorbance of the cultures was measured and related to the control. All measurements were carried out in triplicate. No toxic effect was attributable to DMSO. Since parasite growth is exponential, the data were analysed according to a first order equation, and the respective growth constant (k), corresponding to the slope, was calculated for controls and parasites treated with different drug concentrations. From these measurements, percentage growth inhibition (%GI) and half-maximal inhibitory concentration (IC50) values were calculated.

[2] = tested on: T. cruzi epimastigotes, INC-5 strain; test: Growth inhibition of T. cruzi epimastigotes, INC-5 strain; assay type: cell-based, Trypanosoma cruzi; conditions: Trypanosoma cruzi, 120 h, read-out: Epi INC-5 IC50
Description: as §1

[3] = tested on: T. cruzi trypomastigotes, NINOA strain; test: microbe, parasite or virus in culture; assay type: cell-based; conditions: Trypanosoma cruzi, read-out: Trypo NINOA LC50 (half-maximal lytic concentration)
Description: (§2) Those compounds with the lowest IC50 values in the epimastigote studies of each strain were evaluated in trypomastigotes. For this purpose, bloodstream trypomastigotes of INC-5 and NINOA strains were used for peritoneal injection into 6−8-week-old CD1 mice. The peak of parasitemia was achieved after 4–6 weeks, at which time parasitised blood samples were obtained by cardiac puncture using sodium heparin as an anticoagulant and diluted to a concentration of 1 × 10^6 trypomastigotes/mL. 10 µL of each of the dilutions of the study compounds and Bzn, with these being placed in a 96-well plate, and 90 µL of infected blood was added, providing a final volume of 100 µL per well. The microplates were incubated at 4 °C for 24 h, and concentrations of 20 µM, 10 µM, and 5 µM of each compound were considered in these experiments. Each evaluation was performed in triplicate. Wells with untreated blood trypomastigotes were used as a negative lysis control and Bzn as a positive control. Then, the degree of lysis of trypomastigotes was determined by their reduction in number using an optical microscope according to the Brener–Pizzi method. For this purpose, 5 μL of blood was placed between a slide and a 13 × 13 coverslip. Mobile trypomastigotes were counted in 15 microscope fields at 40× magnification. Quantification of the degree of lysis for each case was expressed as a percentage considering the number of viable trypomastigotes with respect to the negative control. The half-maximal lytic concentration (LC50) was determined by linear regression. The experiments were carried out in accordance with the recommendations and approval of the local Ethics and Research Committee (Approval number: ENCB/CEI/078/2020).

[4] = tested on: T. cruzi trypomastigotes, INC-5 strain; test: microbe, parasite or virus in culture; assay type: cell-based; conditions: Trypanosoma cruzi, read-out: Trypo INC-5 LC50 (half-maximal lytic concentration)
Description: as §2

[5] = tested on: J774 murine macrophages; test: Cytotoxicity on J774 macrophages (MTT); assay type: cell-based
Description: Cytotoxicity assays for the compounds selected for their trypanocidal activity were performed on J774 macrophage cells using the MTT method. For this purpose, 50,000 cells/well resuspended in RPMI medium and 2% foetal bovine serum were seeded in a 96-well plate and incubated for 24 h at 37 °C. […] After 24 h of incubation, the existing culture medium was replaced in the plate with fresh culture medium along with […] each of the compound dilutions (100 to 1.25 μM) and Bzn to a final volume of 100 µL per well. This plate was then incubated in 5% CO2 for 24 h at 37 °C. The controls used were cells with medium as a positive control and cells without culture medium as a negative control. After the 24 h incubation, the morphology of the macrophages was observed under a microscope and then the culture medium was removed again and the MTT solution (5 mg/mL) was added. After 1 h incubation at 37 °C, the absorbance at 570 nm was recorded on an Elisa Epoch reader. The following formula was used to calculate the % cytotoxicity: %cytotoxicity = (100 − (mean number of cells with treatment/cells without treatment) × 100).

[6] = epimastigotes, NINOA strain, five days, means of three independent experiments
[7] = epimastigotes, INC-5 strain, five days, means of three independent experiments
[8] = bloodstream trypomastigotes, NINOA strain, 24 h at 4 °C
[9] = bloodstream trypomastigotes, INC-5 strain, 24 h at 4 °C
[10] = Mus musculus, J774, 24 h, J774 macrophages, MTT, 24 h, read-out: J774 IC50

| Compound | IC50 [1, 6] | IC50 [2, 7] | LC50 [3, 8] | LC50 [4, 9] | also measured |
| --- | --- | --- | --- | --- | --- |
| O=C1C(Br)=C(N2CCN(C3CCCC3)CC2)C(=O)c2ccccc21 [Compound 2f, 2-Bromo-3-(4-cyclopentylpiperazin-1-yl)naphthalene-1,4-dione] | 1.15 ± 0.09 µM | 1.46 ± 0.03 µM | 97.9 ± 2.13 µM | > 100 µM | – |
| O=C1C=C(N2CCN(C3CCCC3)CC2)C(=O)c2ccccc21 [Compound 2d, 2-(4-Cyclopentylpiperazin-1-yl)naphthalene-1,4-dione] | 1.12 ± 0.04 µM | 5.04 ± 0.26 µM | > 100 µM | 87.3 ± 5.32 µM | – |
| O=C(NC1CCN(C2=C(Cl)C(=O)c3ccccc3C2=O)CC1)c1cc([N+](=O)[O-])cc([N+](=O)[O-])c1 [Compound 7f, N-(1-(3-chloro-1,4-dioxo-1,4-dihydronaphthalen-2-yl)piperidin-4-yl)-3,5-dinitrobenzamide] | – | – | – | – | LC50 ([3]; 24 h): 70.9 ± 7.31 µM; LC50 ([4]; 24 h): 98.6 ± 8.2 µM; IC50 ([5]; Mus musculus, J774, 24 h, read-out: J774 IC50, J774 macrophages, MTT, 24 h): ~25 µM; IC50 [1]: 0.99 ± 0.01 µM; IC50 [2]: 1.84 ± 0.06 µM |
| O=C1C(Br)=C(N2CCC(N3CCOCC3)CC2)C(=O)c2ccccc21 [Compound 2i, 2-Bromo-3-(4-morpholinopiperidin-1-yl)naphthalene-1,4-dione] | 10.1 ± 0.05 µM | 1.74 ± 0.02 µM | – | – | melting point: 148 to 149 °C |
| O=C1C(Cl)=C(NCCN2CCOCC2)C(=O)c2ccccc21 [Compound 2b, 2-Chloro-3-((2-morpholinoethyl)amino)naphthalene-1,4-dione] | 1.1 ± 0.05 µM | 2.98 ± 0.2 µM | > 100 µM | > 100 µM | – |
| O=C1C(Br)=C(NCCN2CCOCC2)C(=O)c2ccccc21 [Compound 2c, 2-Bromo-3-((2-morpholinoethyl)amino)naphthalene-1,4-dione] | 1.14 ± 0.06 µM | 2.22 ± 0.04 µM | > 100 µM | > 100 µM | – |
| O=C1C=C(N2CCC(N3CCOCC3)CC2)C(=O)c2ccccc21 [Compound 2g, 2-(4-Morpholinopiperidin-1-yl)naphthalene-1,4-dione] | 7.05 ± 0.95 µM | 8.45 ± 0.35 µM | – | – | melting point: 151 to 153 °C |
| O=C1C=C(NCCN2CCOCC2)C(=O)c2ccccc21 [Compound 2a, 2-((2-Morpholinoethyl)amino)naphthalene-1,4-dione] | 1.1 ± 0.12 µM | 3.06 ± 0.01 µM | > 100 µM | > 100 µM | – |
| O=C1C(Cl)=C(N2CCC(N3CCOCC3)CC2)C(=O)c2ccccc21 [Compound 2h, 2-Chloro-3-(4-morpholinopiperidin-1-yl)naphthalene-1,4-dione] | 6.4 ± 0.02 µM | 6.6 ± 0.08 µM | – | – | melting point: 145 to 146 °C |
| O=C1C(Cl)=C(N2CCN(C3CCCC3)CC2)C(=O)c2ccccc21 [Compound 2e, 2-Chloro-3-(4-cyclopentylpiperazin-1-yl)naphthalene-1,4-dione] | 0.43 ± 0.15 µM | – | > 100 µM | > 100 µM | – |

Second part, led by results:

| IC50 [1, 6] | IC50 [2, 7] | Compound | LC50 [3, 8] | LC50 [4, 9] | also measured |
| --- | --- | --- | --- | --- | --- |
| 4.45 ± 0.06 µM | 5.6 ± 0.03 µM | Cc1cc(C)cc(C(=O)NC2CCN(C3=C(Cl)C(=O)c4ccccc4C3=O)CC2)c1 [Compound 7e, N-(1-(3-chloro-1,4-dioxo-1,4-dihydronaphthalen-2-yl)piperidin-4-yl)-3,5-dimethylbenzamide] | – | – | melting point: 206 to 208 °C |
| 1.25 ± 0.06 µM | 2.3 ± 0.11 µM | O=C(NC1CCN(C2=C(Cl)C(=O)c3ccccc3C2=O)CC1)c1ccc(CCl)cc1 [Compound 7d, N-(1-(3-chloro-1,4-dioxo-1,4-dihydronaphthalen-2-yl)piperidin-4-yl)-4-(chloromethyl)benzamide] | > 100 µM | > 100 µM | – |
| 0.52 ± 0.04 µM | 1.14 ± 0.07 µM | O=C(NC1CCN(C2=C(Cl)C(=O)c3ccccc3C2=O)CC1)c1cccc(Cl)c1 [Compound 7c, 3-Chloro-N-(1-(3-chloro-1,4-dioxo-1,4-dihydronaphthalen-2-yl)piperidin-4-yl)benzamide] | 68.4 ± 6.3 µM | > 100 µM | IC50 [5, 10]: ~25 µM |
| 0.84 ± 0.11 µM | 1.35 ± 0.01 µM | COc1ccc(C(=O)NC2CCN(C3=C(Cl)C(=O)c4ccccc4C3=O)CC2)cc1F [Compound 7h, N-(1-(3-chloro-1,4-dioxo-1,4-dihydronaphthalen-2-yl)piperidin-4-yl)-3-fluoro-4-methoxybenzamide] | 78.6 ± 3.91 µM | 94.7 ± 5.21 µM | IC50 ([5]; J774 macrophages, MTT, 24 h, read-out: J774 IC50): 22 µM; IC50 [5, 10]: ~25 µM |
| 6.41 ± 0.02 µM | 2.46 ± 0.08 µM | O=C(NC1CCN(C2=C(Cl)C(=O)c3ccccc3C2=O)CC1)c1ccccc1Br [Compound 7a, 2-Bromo-N-(1-(3-chloro-1,4-dioxo-1,4-dihydronaphthalen-2-yl)piperidin-4-yl)benzamide] | – | – | melting point: 197 to 198 °C |
| 1.09 ± 0.01 µM | 3.35 ± 0.05 µM | O=C1C(Cl)=C(N2CCC(NC(=O)c3ccc(C(F)(F)F)cc3[N+](=O)[O-])CC2)C(=O)c2ccccc21 [Compound 7i, N-(1-(3-chloro-1,4-dioxo-1,4-dihydronaphthalen-2-yl)piperidin-4-yl)-2-nitro-4-(trifluoromethyl)benzamide] | 90.5 ± 6.58 µM | > 100 µM | – |
| 3.55 ± 0.02 µM | 2.57 ± 0.04 µM | O=C(NC1CCN(C2=C(Cl)C(=O)c3ccccc3C2=O)CC1)c1cc(F)cc(Cl)c1 [Compound 7g, 3-Chloro-N-(1-(3-chloro-1,4-dioxo-1,4-dihydronaphthalen-2-yl)piperidin-4-yl)-5-fluorobenzamide] | > 100 µM | > 100 µM | – |
| 0.77 ± 0.21 µM | 2.23 ± 0.06 µM | O=C(NC1CCN(C2=C(Cl)C(=O)c3ccccc3C2=O)CC1)c1ccc([N+](=O)[O-])cc1 [Compound 7b, N-(1-(3-chloro-1,4-dioxo-1,4-dihydronaphthalen-2-yl)piperidin-4-yl)-4-nitrobenzamide] | 80.3 ± 4.03 µM | > 100 µM | – |
